Assay results from article PMC5814754, “Quantitative, Wide-Spectrum Kinase Profiling in Live Cells for Assessing the Effect of Cellular ATP on Target Engagement” (Cell Chemical Biology, 2018).

Legend:
Assay in all cases: NanoBRET single-dose fractional occupancy profiling of kinase/Nluc library in live HEK293 cells (Table S1)
Assay type in all cases: binding
Set-up in all cases: receptor occupancy: dose or concentration left out as unconfirmed; Occupancy, % Replicate 1 / Occupancy, % Replicate 2: unit of the concentration uncertain
[1] = biological target: 178 full-length kinases (Homo sapiens, UniProt Q8IVW4); settings: CDKL3, Nluc N, probe 1 at 0.05 (unit uncertain)
[2] = biological target: 178 full-length kinases (Homo sapiens, UniProt Q13237); settings: PRKG2, Nluc C, probe 5 at 1 (unit uncertain)
[3] = biological target: 178 full-length kinases (Homo sapiens, UniProt Q8TD19); settings: NEK9, Nluc N, probe 5 at 1 (unit uncertain)
[4] = biological target: 178 full-length kinases (Homo sapiens, UniProt Q12866); settings: MERTK, Nluc C; read-out: Occupancy, % Replicate 2
[5] = biological target: 178 full-length kinases (Homo sapiens, UniProt P30291); settings: WEE1 (NP_003381), Nluc orientation C, probe 5 at 0.05 (unit uncertain)
[6] = biological target: 178 full-length kinases (Homo sapiens, UniProt Q16539); settings: MAPK14, Nluc C, probe 6 at 0.1 (unit uncertain)
[7] = biological target: 178 full-length kinases (Homo sapiens, UniProt Q02779); settings: MAP3K10, Nluc N, probe 5 at 1 (unit uncertain)
[8] = biological target: 178 full-length kinases (Homo sapiens, UniProt P36896); settings: ACVR1B, Nluc C, probe 5 at 1 (unit uncertain)
[9] = biological target: 178 full-length kinases (Homo sapiens, UniProt Q08881); settings: ITK, Nluc N, probe 5 at 0.01 (unit uncertain)
[10] = biological target: 178 full-length kinases (Homo sapiens, UniProt P29597); settings: TYK2 (NP_003322), Nluc orientation C, probe 5 at 1 (unit uncertain); replicate 1
[11] = biological target: 178 full-length kinases (Homo sapiens, UniProt Q8IWQ3); settings: BRSK2, Nluc N, probe 5 at 0.5 (unit uncertain)
[12] = biological target: 178 full-length kinases (Homo sapiens, UniProt Q96L34); settings: MARK4, Nluc N, probe 5 at 1 (unit uncertain)
[13] = biological target: 178 full-length kinases (Homo sapiens, UniProt P42681); settings: TXK (NP_003319), Nluc orientation C, probe 6 at 0.1 (unit uncertain)
[14] = biological target: 178 full-length kinases (Homo sapiens, UniProt P17612); settings: PRKACA, Nluc C, probe 5 at 1 (unit uncertain)
[15] = biological target: 178 full-length kinases (Homo sapiens, UniProt Q9BVS4); settings: RIOK2, Nluc N, probe 5 at 1 (unit uncertain)
[16] = biological target: 178 full-length kinases (Homo sapiens, UniProt O94768); settings: STK17B (NP_004217), Nluc orientation C, probe 1 at 1 (unit uncertain)
[17] = biological target: 178 full-length kinases (Homo sapiens, UniProt Q8NG66); settings: NEK11, Nluc N, probe 5 at 1 (unit uncertain)
[18] = biological target: 178 full-length kinases (Homo sapiens, UniProt Q16832); settings: DDR2, Nluc C, probe 6 at 0.1 (unit uncertain)
[19] = biological target: 178 full-length kinases (Homo sapiens, UniProt Q9Y463); settings: DYRK1B, Nluc N, probe 5 at 1 (unit uncertain)
178 full-length kinases (Homo sapiens, UniProt Q9Y463), sequence (Q9Y463 whole entry): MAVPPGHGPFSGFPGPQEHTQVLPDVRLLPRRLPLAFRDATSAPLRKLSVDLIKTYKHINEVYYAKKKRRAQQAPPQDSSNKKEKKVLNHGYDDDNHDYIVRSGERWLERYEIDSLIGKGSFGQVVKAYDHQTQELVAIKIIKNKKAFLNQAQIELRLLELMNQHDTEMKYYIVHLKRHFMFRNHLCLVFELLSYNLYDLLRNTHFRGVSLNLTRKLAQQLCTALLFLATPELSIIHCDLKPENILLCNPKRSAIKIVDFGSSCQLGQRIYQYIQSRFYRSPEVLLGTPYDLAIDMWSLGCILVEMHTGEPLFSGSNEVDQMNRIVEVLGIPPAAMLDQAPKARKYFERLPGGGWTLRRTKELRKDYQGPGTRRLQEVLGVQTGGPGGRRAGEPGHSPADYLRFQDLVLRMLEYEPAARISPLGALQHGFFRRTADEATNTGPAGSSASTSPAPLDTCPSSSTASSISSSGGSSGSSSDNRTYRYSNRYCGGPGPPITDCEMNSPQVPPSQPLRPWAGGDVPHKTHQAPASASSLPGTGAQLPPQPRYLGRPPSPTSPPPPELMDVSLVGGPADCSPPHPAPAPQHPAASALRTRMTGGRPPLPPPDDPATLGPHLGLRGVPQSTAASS

178 full-length kinases (Homo sapiens, UniProt O94768), sequence (O94768 whole entry): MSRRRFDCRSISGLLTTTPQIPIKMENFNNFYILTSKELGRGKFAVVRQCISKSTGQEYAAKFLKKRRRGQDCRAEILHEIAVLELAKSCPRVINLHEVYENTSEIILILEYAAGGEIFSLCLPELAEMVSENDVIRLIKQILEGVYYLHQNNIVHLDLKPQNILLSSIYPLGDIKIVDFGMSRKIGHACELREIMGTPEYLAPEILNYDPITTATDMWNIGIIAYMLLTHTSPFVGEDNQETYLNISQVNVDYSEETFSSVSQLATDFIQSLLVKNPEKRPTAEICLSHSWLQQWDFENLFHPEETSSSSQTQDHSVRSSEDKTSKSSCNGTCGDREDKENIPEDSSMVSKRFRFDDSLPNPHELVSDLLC
178 full-length kinases (Homo sapiens, UniProt P42681), sequence (P42681 whole entry): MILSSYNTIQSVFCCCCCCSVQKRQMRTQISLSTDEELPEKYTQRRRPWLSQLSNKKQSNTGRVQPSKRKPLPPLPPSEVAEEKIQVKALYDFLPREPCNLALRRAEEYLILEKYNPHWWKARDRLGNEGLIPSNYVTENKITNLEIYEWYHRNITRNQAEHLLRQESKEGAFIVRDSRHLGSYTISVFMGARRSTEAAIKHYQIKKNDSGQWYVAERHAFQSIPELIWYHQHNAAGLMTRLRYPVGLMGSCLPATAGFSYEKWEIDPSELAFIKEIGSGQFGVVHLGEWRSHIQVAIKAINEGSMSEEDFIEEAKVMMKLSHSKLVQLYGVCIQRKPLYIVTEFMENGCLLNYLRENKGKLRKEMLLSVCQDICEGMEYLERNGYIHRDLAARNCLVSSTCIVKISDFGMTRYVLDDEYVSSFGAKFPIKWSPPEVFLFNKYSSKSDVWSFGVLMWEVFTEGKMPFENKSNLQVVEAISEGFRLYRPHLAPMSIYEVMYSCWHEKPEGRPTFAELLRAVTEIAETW
178 full-length kinases (Homo sapiens, UniProt Q96L34), sequence (Q96L34 whole entry): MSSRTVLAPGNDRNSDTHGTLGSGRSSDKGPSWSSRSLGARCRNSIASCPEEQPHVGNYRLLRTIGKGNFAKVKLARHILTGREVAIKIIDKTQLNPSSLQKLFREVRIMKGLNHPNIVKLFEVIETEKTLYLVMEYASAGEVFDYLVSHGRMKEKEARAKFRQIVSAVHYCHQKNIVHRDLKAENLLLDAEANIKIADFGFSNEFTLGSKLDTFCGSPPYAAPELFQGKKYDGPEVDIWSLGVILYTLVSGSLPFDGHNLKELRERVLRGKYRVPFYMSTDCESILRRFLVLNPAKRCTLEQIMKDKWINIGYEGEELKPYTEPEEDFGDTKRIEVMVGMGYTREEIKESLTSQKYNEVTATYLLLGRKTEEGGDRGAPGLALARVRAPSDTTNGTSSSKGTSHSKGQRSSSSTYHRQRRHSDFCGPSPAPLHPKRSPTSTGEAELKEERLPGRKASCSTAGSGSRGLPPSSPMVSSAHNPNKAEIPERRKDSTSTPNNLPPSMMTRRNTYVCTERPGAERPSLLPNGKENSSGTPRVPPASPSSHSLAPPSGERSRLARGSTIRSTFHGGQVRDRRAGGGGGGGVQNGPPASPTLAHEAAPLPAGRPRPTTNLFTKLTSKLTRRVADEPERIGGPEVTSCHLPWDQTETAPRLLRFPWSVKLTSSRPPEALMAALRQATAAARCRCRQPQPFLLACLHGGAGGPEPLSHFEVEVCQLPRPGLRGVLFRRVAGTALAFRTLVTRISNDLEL
178 full-length kinases (Homo sapiens, UniProt Q02779), sequence (Q02779 whole entry): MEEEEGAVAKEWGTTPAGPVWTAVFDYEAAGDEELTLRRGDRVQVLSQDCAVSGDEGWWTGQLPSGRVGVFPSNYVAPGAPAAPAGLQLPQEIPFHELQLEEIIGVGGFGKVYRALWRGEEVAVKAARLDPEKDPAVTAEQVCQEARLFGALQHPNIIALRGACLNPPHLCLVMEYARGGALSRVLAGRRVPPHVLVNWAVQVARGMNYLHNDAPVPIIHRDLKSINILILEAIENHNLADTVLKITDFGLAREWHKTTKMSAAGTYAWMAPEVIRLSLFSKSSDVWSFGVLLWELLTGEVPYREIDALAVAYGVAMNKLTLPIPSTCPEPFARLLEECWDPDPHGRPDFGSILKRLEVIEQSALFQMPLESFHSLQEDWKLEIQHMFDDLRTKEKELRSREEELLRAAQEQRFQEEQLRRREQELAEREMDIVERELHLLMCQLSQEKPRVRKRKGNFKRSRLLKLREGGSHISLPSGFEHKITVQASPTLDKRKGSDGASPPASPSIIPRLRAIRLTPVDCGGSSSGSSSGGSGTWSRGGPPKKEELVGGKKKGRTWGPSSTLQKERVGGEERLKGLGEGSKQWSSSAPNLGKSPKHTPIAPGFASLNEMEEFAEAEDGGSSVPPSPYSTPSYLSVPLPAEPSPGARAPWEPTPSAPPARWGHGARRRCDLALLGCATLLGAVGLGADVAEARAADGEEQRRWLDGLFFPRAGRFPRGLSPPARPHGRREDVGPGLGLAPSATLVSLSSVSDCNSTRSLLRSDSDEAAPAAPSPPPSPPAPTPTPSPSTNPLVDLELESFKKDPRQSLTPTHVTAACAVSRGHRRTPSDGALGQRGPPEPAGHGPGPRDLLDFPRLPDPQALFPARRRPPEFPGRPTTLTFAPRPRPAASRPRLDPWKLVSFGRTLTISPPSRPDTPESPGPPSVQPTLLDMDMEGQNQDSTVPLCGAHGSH
178 full-length kinases (Homo sapiens, UniProt Q9BVS4), sequence (Q9BVS4 whole entry): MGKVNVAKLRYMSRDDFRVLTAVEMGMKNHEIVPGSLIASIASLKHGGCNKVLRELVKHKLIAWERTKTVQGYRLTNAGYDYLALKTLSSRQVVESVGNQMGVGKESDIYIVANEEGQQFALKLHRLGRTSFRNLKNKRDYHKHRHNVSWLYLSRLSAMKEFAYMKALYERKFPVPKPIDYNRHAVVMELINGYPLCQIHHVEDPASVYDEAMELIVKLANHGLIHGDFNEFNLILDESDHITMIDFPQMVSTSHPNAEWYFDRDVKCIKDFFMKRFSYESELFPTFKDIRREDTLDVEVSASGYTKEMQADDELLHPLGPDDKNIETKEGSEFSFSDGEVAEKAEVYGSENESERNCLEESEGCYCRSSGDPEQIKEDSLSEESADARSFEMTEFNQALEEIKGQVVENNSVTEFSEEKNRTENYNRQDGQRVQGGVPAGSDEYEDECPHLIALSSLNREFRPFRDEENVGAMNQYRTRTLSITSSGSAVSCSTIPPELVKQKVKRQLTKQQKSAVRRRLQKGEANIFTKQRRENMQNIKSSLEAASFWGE
178 full-length kinases (Homo sapiens, UniProt Q16539), sequence (Q16539 whole entry): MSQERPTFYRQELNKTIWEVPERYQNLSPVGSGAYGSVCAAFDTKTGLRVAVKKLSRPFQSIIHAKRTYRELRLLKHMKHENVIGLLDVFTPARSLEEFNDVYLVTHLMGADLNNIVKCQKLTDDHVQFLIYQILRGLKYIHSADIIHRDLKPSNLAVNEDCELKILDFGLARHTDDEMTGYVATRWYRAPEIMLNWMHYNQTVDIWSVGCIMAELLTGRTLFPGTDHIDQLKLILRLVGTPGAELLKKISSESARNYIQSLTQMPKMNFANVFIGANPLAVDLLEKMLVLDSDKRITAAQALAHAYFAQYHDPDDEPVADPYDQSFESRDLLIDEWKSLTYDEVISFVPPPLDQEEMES
178 full-length kinases (Homo sapiens, UniProt P30291), sequence (P30291 whole entry): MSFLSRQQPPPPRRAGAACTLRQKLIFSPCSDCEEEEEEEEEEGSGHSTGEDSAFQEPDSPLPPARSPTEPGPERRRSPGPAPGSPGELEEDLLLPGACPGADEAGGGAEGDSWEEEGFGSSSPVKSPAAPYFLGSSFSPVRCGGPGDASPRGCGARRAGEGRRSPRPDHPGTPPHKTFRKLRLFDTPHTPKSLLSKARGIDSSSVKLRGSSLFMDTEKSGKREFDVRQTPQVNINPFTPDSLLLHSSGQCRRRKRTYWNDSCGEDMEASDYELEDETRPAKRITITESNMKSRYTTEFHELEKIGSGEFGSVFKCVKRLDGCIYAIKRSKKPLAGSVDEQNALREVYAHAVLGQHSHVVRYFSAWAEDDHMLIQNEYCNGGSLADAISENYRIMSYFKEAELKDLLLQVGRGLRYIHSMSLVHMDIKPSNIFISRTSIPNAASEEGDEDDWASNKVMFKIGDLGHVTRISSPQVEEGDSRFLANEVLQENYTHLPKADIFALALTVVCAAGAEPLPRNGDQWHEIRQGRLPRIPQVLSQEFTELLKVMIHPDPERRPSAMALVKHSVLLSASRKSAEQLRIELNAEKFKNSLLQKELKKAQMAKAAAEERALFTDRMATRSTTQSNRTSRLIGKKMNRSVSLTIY

C[C@@H](Oc1cc(-c2cnn(C3CCNCC3)c2)cnc1N)c1c(Cl)ccc(F)c1Cl [Crizotinib]
Occupancy, % Replicate 1 [1]: No Binding | Occupancy, % Replicate 2 [1]: No Binding | Occupancy, % Replicate 2 [2]: No Binding | Occupancy, % Replicate 1 [3]: No Binding | receptor occupancy [4]: 81% | Occupancy, % Replicate 1 ([5]; replicate 1): No Binding | Occupancy, % Replicate 2 ([5]; replicate 2): No Binding | Occupancy, % Replicate 1 [6]: No Binding | Occupancy, % Replicate 2 [6]: No Binding | Occupancy, % Replicate 1 [7]: No Binding | Occupancy, % Replicate 2 [7]: No Binding | Occupancy, % Replicate 2 [8]: No Binding | Occupancy, % Replicate 1 [9]: No Binding | Occupancy, % Replicate 1 [10]: No Binding | Occupancy, % Replicate 2 [11]: No Binding | Occupancy, % Replicate 1 [12]: No Binding | Occupancy, % Replicate 2 [12]: No Binding | Occupancy, % Replicate 1 ([13]; replicate 1): No Binding | Occupancy, % Replicate 2 ([13]; replicate 2): No Binding | Occupancy, % Replicate 1 [14]: No Binding | Occupancy, % Replicate 2 [14]: No Binding | Occupancy, % Replicate 1 [15]: No Binding | Occupancy, % Replicate 2 [15]: No Binding | Occupancy, % Replicate 1 ([16]; replicate 1): No Binding | Occupancy, % Replicate 2 ([16]; replicate 2): No Binding | Occupancy, % Replicate 2 [17]: No Binding | Occupancy, % Replicate 1 [18]: No Binding | Occupancy, % Replicate 1 [19]: No Binding | Occupancy, % Replicate 2 [19]: No Binding
